Assay results from article PMC11655196, “Angiotensin-I-converting enzyme inhibitory peptides from eel (Anguilla japonica) bone collagen: preparation, identification, molecular docking, and protective function on HUVECs” (Frontiers in Nutrition, 2024).
Where two headings read alike, the source gives them in different places. Ends that are not written are not given here.

Columns and labels:
ACE [1] = target: T1, ACE (Oryctolagus cuniculus, UniProt P12822); test: ACE inhibition kinetics (Lineweaver-Burk plots); assay type: biochemical, rabbit; conditions: GPPGPPGL 0–100 μM, HHL 2 to 5 mM
T1 construct: ACE (≥2.0 U/mg, rabbit lung) was purchased; purchased Shanghai Yuanye Biotechnology Co., Ltd. (Shanghai, China); host or cells: rabbit lung (tissue-derived)
T1 sequence (P12822 34-1310): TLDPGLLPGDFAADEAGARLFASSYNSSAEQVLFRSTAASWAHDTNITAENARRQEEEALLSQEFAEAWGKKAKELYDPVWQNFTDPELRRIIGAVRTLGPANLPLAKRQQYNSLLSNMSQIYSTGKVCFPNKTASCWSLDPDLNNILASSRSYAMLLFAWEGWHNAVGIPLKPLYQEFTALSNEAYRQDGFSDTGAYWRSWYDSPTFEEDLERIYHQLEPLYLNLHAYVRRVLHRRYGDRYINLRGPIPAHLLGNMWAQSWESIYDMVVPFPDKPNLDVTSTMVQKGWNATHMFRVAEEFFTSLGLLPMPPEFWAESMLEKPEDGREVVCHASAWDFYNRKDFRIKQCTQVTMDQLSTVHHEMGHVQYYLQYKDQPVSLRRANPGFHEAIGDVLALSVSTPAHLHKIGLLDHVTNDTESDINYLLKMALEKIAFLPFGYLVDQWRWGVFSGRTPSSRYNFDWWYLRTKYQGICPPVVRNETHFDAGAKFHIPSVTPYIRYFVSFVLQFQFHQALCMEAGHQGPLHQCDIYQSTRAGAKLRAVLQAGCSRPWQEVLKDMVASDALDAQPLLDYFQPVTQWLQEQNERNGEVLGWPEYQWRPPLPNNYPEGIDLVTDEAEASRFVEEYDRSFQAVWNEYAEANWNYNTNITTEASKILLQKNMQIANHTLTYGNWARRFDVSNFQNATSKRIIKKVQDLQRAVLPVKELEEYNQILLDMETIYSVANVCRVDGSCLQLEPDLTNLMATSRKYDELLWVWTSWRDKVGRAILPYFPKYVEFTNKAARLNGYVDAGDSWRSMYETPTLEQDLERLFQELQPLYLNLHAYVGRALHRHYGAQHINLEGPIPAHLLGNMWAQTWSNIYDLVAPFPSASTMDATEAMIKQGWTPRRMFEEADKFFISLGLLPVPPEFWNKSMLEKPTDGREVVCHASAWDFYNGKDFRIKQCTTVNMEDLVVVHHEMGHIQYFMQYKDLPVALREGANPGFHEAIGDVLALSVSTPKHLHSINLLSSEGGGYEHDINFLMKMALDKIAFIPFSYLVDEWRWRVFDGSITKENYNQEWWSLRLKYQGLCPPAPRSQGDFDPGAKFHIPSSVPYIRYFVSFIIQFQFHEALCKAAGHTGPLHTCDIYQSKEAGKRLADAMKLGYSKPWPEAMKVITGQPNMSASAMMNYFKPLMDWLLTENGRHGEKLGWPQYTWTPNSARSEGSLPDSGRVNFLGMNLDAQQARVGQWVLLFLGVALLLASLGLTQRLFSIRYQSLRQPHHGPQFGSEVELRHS
Protocol: The ACE inhibition kinetics of the chosen peptides were determined using the method of previous research ([20]), using Lineweaver–Burk plots. The measurement of ACE activity was conducted at different concentrations of peptides, and HHL concentrations ranging from 2 to 5 mM were included. The Michaelis–Menten kinetic equation was used to compute the Michaelis–Menten constant (Km) and maximum reaction rate (Vmax) using data obtained from the Lineweaver–Burk plots.

ACE [2] = conditions: read-out: IC50 (blood pressure lowering peptide, ACE), cited from earlier work
Excerpt: There were various peptides derived from food that are recognized for their ability to inhibit ACE activity, potentially leading to a reduction in blood pressure levels in vivo ([6]).

[3] = from conger eel (Conger myriaster); read-out: IC50 (anti-oxidative effects); cited from earlier work
Excerpt: Anguilla japonica, also known as eel, is a type of aquatic food that contains high levels of protein, fat, vitamin A, vitamin E, and other nutrients ([11]). It is particularly abundant in collagen. Eel processing is mainly based on grilled eel, most of which is exported abroad. During the eel processing of eels, various by-products such as fish heads and bones are generated. These by-products are mainly used in the production of animal feed or discarded. Eel bones have approximately 13.25% of protein, 19.18% of lipid, 5.63% of ash, and 56.96% of moisture content ([12]). Some bioactive peptides ...

GPPGPPGL [GPPGPPGL]
Km with increasing peptide level (ACE [1]): increase

Gln-Val-Glu-Tyr [literature peptide from Gracilariopsis lemaneiformis]
IC50 (ACE [2]; from Gracilariopsis lemaneiformis): 474 µM

Ile-Pro-Ile-Lys [literature peptide from Euphausia superba]
IC50 (ACE [2]; from Euphausia superba): 57.4 µM

LGLNGDDVN [literature anti-oxidative peptide from conger eel (Conger myriaster)]
IC50 [3]: 78.5 µM

Trp-Pro-Met-Gly-Phe [literature peptide from Cyclina sinensis]
IC50 (ACE [2]; from Cyclina sinensis): 789 µM
